In patent EP0200818A1, “Derivatives of the pluramycin group having anti-tumor activity, process for their preparation and their use as medicaments” (MICROBIAL CHEMISTRY RESEARCH FOUNDATION, priority 1984, dated 1986):

Tests used:
L 1210 leukemia cells = assay: Anti-tumor activity: life prolongation of mice transplanted intraperitoneally with L 1210 leukemia cells; assay type: in vivo, CDF1 mice; details: observed for 30 days, survival of physiological saline control mice = 100
Method: A suspension of 1 x 10^5 L 1210 leukemia cells was transplated intraperitoneally in each of the CDF1 mice tested. Thereafter, 5',6'-dehydrokidamycin was injected intraperitoneally for 10 days in predetermined amounts, 10, 5, 2.5, 1.25, 0.625 and 0.3125 mg/kg.

[1] = Acute toxicity (LD50), single intraperitoneal injection; assay type: in vivo; details: single intraperitoneal injection in mice
Method: The LD50 of 5',6'-dehydrokidamycin for a single intraperitoneal injection in mice was 100 mg/kg.

[2] = tested on: cultured leukemia cell L 1210; assay: Cytotoxicity: growth inhibition of cultured leukemia cells; assay type: cell-based; details: growth of cultured leukemia cell L 1210
Method: The growth of cultured leukemia cell L 1210 was inhibited by 0.07 µg/ml (IC50) of 5',6'~dehydrokidamycin.

5',6'-dehydrokidamycin
Percent life prolongation (L 1210 leukemia cells; 0.3125 mg/kg/day intraperitoneally for 10 days): 147%
Percent life prolongation (L 1210 leukemia cells; 0.625 mg/kg/day intraperitoneally for 10 days): 133%
Percent life prolongation (L 1210 leukemia cells; 1.25 mg/kg/day intraperitoneally for 10 days): 133%
Percent life prolongation (L 1210 leukemia cells; 2.5 mg/kg/day intraperitoneally for 10 days): 133%
Percent life prolongation (L 1210 leukemia cells; 5 mg/kg/day intraperitoneally for 10 days): 173%
Percent life prolongation (L 1210 leukemia cells; 10 mg/kg/day intraperitoneally for 10 days): 153%
LD50 [1]: 100 mg/kg
IC50 [2]: 0.07 µg/mL
